Data published in ChEMBL document CHEMBL4177587, “SIRT6 inhibitors with salicylate-like structure show immunosuppressive and chemosensitizing effects” (Bioorg Med Chem, 2017).
Values after ≈ are worked out from the molar mass of the structure shown. Active and inactive are the calls of the source. No cut-off for these calls is given here.

What was measured:
[1] = target: T1, NAD-dependent protein deacylase sirtuin-6 (Homo sapiens, UniProt Q8N6T7); test: Inhibition of human recombinant SIRT6 assessed as reduction in NAD+-dependent deacetylase activity at 200 uM using Arg-His-Lys-Lys(epsilon-acetyl)-AMC substrate and NAD+ by fluorescence based assay
T1 sequence (Q8N6T7 whole entry): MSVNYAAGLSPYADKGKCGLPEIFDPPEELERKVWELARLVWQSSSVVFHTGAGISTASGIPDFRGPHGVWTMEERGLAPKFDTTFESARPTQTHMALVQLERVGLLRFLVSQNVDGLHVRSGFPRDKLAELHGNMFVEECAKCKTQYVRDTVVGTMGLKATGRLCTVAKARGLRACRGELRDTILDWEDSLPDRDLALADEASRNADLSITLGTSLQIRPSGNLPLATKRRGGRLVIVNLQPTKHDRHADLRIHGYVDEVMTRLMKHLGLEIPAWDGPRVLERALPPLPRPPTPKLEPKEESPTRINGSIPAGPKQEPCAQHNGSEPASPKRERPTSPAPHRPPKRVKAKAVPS

Homo sapiens [2] = species: Homo sapiens; test: Selectivity index, ratio of IC50 for human recombinant SIRT1 to IC50 for human recombinant SIRT6
Homo sapiens [3] = species: Homo sapiens; test: Selectivity index, ratio of IC50 for human recombinant SIRT2 to IC50 for human recombinant SIRT6
[4] = target: T1, NAD-dependent protein deacylase sirtuin-6; test: Inhibition of SIRT6 in human BxPC3 cells assessed as increase in H3K9 acetylation by immunoblotting relative to untreated control; type: cell-based; design: concentration or dose not given beside the values
[5] = target: T1, NAD-dependent protein deacylase sirtuin-6; test: Inhibition of SIRT6 in human BxPC3 cells assessed as increase in 2-NBDG uptake at 100 uM incubated for 18 hrs by glucose uptake assay; type: cell-based
[6] = target: T1, NAD-dependent protein deacylase sirtuin-6; test: Inhibition of SIRT6 in human BxPC3 cells assessed as reduction in TNFalpha production at 100 uM incubated for 18 hrs by ELISA method; type: cell-based
[7] = target: T1, NAD-dependent protein deacylase sirtuin-6; test: Inhibition of human recombinant SIRT6 assessed as reduction in NAD+-dependent deacetylase activity using Arg-His-Lys-Lys(epsilon-acetyl)-AMC substrate and NAD+ by fluorescence based assay
[8] = target: T2, NAD-dependent protein deacetylase sirtuin-1 (Homo sapiens, UniProt Q96EB6); test: Inhibition of human recombinant SIRT1 assessed as reduction in NAD+-dependent deacetylase activity using Arg-His-Lys-Lys(epsilon-acetyl)-AMC substrate and NAD+ by fluorescence based assay
T2 sequence (Q96EB6 whole entry): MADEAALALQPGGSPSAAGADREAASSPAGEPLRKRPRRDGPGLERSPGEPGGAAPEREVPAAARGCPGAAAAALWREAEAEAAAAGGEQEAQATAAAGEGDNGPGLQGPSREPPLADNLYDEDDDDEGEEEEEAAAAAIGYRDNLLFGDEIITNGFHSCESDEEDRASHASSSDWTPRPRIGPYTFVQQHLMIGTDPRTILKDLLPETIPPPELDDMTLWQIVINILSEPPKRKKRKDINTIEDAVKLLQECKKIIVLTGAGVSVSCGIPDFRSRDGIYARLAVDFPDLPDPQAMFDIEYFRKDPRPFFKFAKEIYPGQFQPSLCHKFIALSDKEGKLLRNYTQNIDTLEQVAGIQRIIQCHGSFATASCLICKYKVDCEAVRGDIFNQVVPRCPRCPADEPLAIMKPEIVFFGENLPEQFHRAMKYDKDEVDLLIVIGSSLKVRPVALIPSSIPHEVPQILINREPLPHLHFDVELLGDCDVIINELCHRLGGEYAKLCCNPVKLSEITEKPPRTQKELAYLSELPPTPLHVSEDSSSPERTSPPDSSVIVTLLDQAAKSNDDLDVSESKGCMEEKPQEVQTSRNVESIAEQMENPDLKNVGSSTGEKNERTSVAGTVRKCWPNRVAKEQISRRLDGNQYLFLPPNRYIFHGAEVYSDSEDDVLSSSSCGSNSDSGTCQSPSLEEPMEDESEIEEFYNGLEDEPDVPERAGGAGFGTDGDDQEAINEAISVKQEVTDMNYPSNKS

[9] = target: T3, NAD-dependent protein deacetylase sirtuin-2 (Homo sapiens, UniProt Q8IXJ6); test: Inhibition of human recombinant SIRT2 assessed as reduction in NAD+-dependent deacetylase activity using Arg-His-Lys-Lys(epsilon-acetyl)-AMC substrate and NAD+ by fluorescence based assay
T3 sequence (Q8IXJ6 whole entry): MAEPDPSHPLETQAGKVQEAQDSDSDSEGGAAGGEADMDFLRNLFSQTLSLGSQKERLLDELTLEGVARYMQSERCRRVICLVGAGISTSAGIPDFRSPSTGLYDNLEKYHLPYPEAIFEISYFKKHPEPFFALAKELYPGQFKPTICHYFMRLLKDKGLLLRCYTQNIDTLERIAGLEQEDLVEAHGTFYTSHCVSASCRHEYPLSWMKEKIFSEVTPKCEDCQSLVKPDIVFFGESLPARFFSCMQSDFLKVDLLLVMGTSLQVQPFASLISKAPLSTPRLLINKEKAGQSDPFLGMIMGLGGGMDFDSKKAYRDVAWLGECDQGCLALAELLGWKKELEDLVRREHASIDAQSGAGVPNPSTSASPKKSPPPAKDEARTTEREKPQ

[10] = Ionisation constant, pKa of the compound; type: physicochemical
[11] = Partition coefficient, log P of the compound; type: physicochemical; conditions: octanol/water
[12] = Intrinsic aqueous solubility in surfactant in 9% TPGS; type: physicochemical; conditions: 9% TPGS surfactant solution
[13] = Intrinsic aqueous solubility in all polymers solutions; type: physicochemical
[14] = Intrinsic aqueous solubility in 23% Kleptose HPB; type: physicochemical
[15] = Intrinsic aqueous solubility in PBS at pH 7.4; type: physicochemical
[16] = Fraction unbound in human plasma at 1 ug/ml by rapid equilibrium dialysis; type: ADME, cell-free
[17] = Fraction unbound in human plasma at 10 ug/ml by rapid equilibrium dialysis; type: ADME, cell-free
[18] = Fraction unbound in mouse plasma at 1 ug/ml by rapid equilibrium dialysis; type: ADME, cell-free
[19] = Fraction unbound in mouse plasma at 10 ug/ml by rapid equilibrium dialysis; type: ADME, cell-free
[20] = Stability in mouse plasma assessed as half life at 1 uM at 37 degC measured after 4 hrs; type: ADME, cell-free

O=C(Nc1ccc(C(=O)O)c(O)c1)c1cccc(NC(=O)c2ccco2)c1
inhibition [1]: 62%

CCC(=O)Nc1ccc(C(=O)Nc2ccc(C(=O)O)c(O)c2)cc1
inhibition [1]: 70%

O=C(Nc1ccc(O)c(C(=O)O)c1)c1cccc(NC(=O)c2ccco2)c1
Ratio IC50 (Homo sapiens [2]): 17.7
Ratio IC50 (Homo sapiens [3]): 8.44
fold change (FC) [4]: 2.1
fold change (FC) [5]: 1.3
inhibition [6]: 52%

O=C(O)c1cccc(NC(=O)c2cccc(N3C(=O)CCS3(=O)=O)c2)c1
inhibition [1]: 5%

CC(=O)Nc1cccc(NS(=O)(=O)c2cc(C(=O)O)c(O)cc2C)c1
inhibition [1]: inactive

O=C(Cc1cccs1)Nc1cccc(C(=O)Nc2cccc(C(=O)O)c2)c1
inhibition [1]: inactive

O=C(O)c1cc(NC(=O)c2cccc(N3C(=O)CCC3=O)c2)cc(C(=O)O)c1
inhibition [1]: 68%

O=C(Nc1ccc(O)c(C(=O)O)c1)c1ccc(NC(=O)C2CC2)cc1
inhibition [1]: 50%

O=C(Nc1ccc(O)cc1C(=O)O)c1ccc(N2C(=O)c3ccccc3C2=O)cc1
inhibition [1]: 100%
IC50 [7]: 20 µM
IC50 [8]: 424 µM
IC50 [9]: 333 µM
Ratio IC50 (Homo sapiens [2]): 21.2
Ratio IC50 (Homo sapiens [3]): 16.6
fold change (FC) [4]: 0.9
fold change (FC) [5]: 1.1
inhibition [6]: 13%
pKa [10]: 3.22
logP [11]: 3.6
solubility [12]: 50 µg/mL (≈ 124 µM)
solubility [13]: 5 µg/mL (≈ 12.4 µM)
solubility [14]: 50 µg/mL (≈ 124 µM)
solubility [15]: 70 µg/mL (≈ 174 µM)
fraction unbound at 1 ug/ml [16]: < 0.001
fraction unbound at 10 ug/ml [17]: < 0.001
fraction unbound at 1 ug/ml [18]: < 0.01
fraction unbound at 10 ug/ml [19]: < 0.01
half-life at 1 µM [20]: 462 min

CC(=O)Nc1ccc(NS(=O)(=O)c2ccc(O)c(C(=O)O)c2)cc1
inhibition [1]: inactive

CCC(CC)C(=O)Nc1cccc(C(=O)Nc2cccc(C(=O)O)c2)c1
inhibition [1]: 54%
